Results from article PMC8274846, “Biogenic nanoporous silicon carrier improves the efficacy of buparvaquone against resistant visceral leishmaniasis” (PLoS Neglected Tropical Diseases, 2021).
Like-named read-outs stand apart in the source and are kept apart here.

Key:
[1] = tested on: L. infantum infection; set-up: method as in earlier work; details: against L. infantum infection; ref 32 (Reimao et al.); cited from earlier work
[2] = tested on: intracellular L.donovani amastigotes, wild-type AG83, in macrophages; test: Antileishmanial activity against intracellular amastigotes, wild-type AG83; format: cell-based; details: for IC50: Leishmania donovani, Macrophage
Description: The intracellular antileishmanial activity was evaluated based on the reduction in the amastigote numbers in the infected macrophages after the treatment. The method was adapted from our previous work. Briefly, 4x10^6 amastigotes in 500 μL of RPMI-1640 suspension were added to each well containing macrophages with the macrophage: parasite ratio of 1:10. The plates were incubated for 4 h at 37°C in 5% CO2. After the parasite internalization period, cells were washed at least twice with fresh media to remove non-phagocytosed parasites. Then, the drug specimen suspended in 1 mL RPMI-1640 was added, and the samples were incubated for 72 h at 37°C in 5% CO2. The medium was aspirated, the coverslips were removed, and then fixed with methanol and air-dried. After staining with Giemsa, 100 cells on the glass discs were counted. Three independent experiments in quadruplicate for each concentration were performed.
Microscopic examinations were performed in duplicates with various concentrations of pure drugs or buparvaquone-loaded nanoparticles and also for control wells. The amastigotes cells were counted for all cases using a hemocytometer. The mean of the control wells was considered as 100% survival. The counts in the treated wells at various concentrations were converted into percentages. Giemsa-stained slides of the macrophages infected with amastigotes were observed under a light microscope. Then the numbers of amastigotes and infected macrophages per 100 cells were counted for each slide. The percentage (%) of inhibition was calculated by using the equation %ofinhibition=C−T/C×100, (2) where C is the number of amastigotes/infected macrophages per 100 cells in the control well and T is the number of amastigotes/infected macrophages per 100 cells in the drug-treated well.
Origin version 6.1 software was used to calculate IC50 and CC50 values by plotting a graph of the percentage of inhibition at various concentrations of all the observations.

## CC(C)(C)[C@H]1CC[C@H](CC2=C(O)C(=O)c3ccccc3C2=O)CC1 [BPQ, Buparvaquone]
[1]
  IC50: 1500 nM
[2]; AG83
  Fold larger cellular IC50 of pure BPQ than BPQ+NP: 3 fold
[2]; CC50/IC50, intracellular
  Selectivity index (SI), AG83: 120 ± 10
[2]; cellular model, range over all four L. donovani strains (Table 3), read-out: Cellular IC50, range over the strains
  IC50: 2000 to 5000 nM
[2]; intracellular amastigotes, 72 h, mean ± σ, n = 4, read-out: Cellular IC50, Wild-type AG83
  IC50: 2900 ± 300 nM
